In PubChem BioAssay AID2384 (Southern Research Specialized Biocontainment Screening …, 2010):

Tested on: S. typhi GFP reporter counter-screen, fluorescence, 4 h
Assay: inhibitors in S. typhi counter-screen strain, dose response, counter-screen for PhoP regulon inhibitor project, fluorescence, 4 h (AID 2384)

Row | SMILES | IC50
1 | COc1ccccc1Nc1c2ccccc2nc2ccccc12 | 99.9 µM
2 | Cc1ccc(NC(=O)CSC(N)=O)cc1Cl | 82.1 µM
3 | Oc1[nH]c2ccccc2c1N=NC(=S)N1CCOCC1 | 21.2 µM
4 | CN1CCN(C2=Cc3ccccc3Sc3cc(F)c(F)cc32)CC1 | 37.3 µM
5 | Clc1ccc(-c2cc(C3CCNCC3)[nH]n2)c(Cl)c1 | 18.2 µM
6 | CCOc1ccc(/C=N/NC(=O)c2[nH]ncc2Br)c(O)c1 | 43.7 µM
7 | COCCCNC(=S)NNC(=O)c1ccccn1 | 23.7 µM
8 | O=C(c1ccc([N+](=O)[O-])o1)N1CCOCC1 | 81.8 µM
9 | CNCCCN1c2ccccc2CCc2ccccc21 | 77.6 µM
10 | O=C(CSc1ccccn1)Nc1nonc1[N+](=O)[O-] | 116 µM
11 | O=C(Nc1ccc(Cl)cc1)Nc1ccc2c(c1)N1CCN=C1S2 | 76.3 µM
12 | Cc1ccc(C(OCC(O)CNCc2ccc(F)cc2)c2ccccc2)cc1 (centres undefined) | 37 µM
13 | O=C(Nc1c(Cl)ccc2nsnc12)c1ccc([N+](=O)[O-])o1 | 137 µM
14 | CC1CCc2cc(F)cc3c(=O)c(C(=O)O)cn1c23 (centres undefined) | 15.6 µM
15 | N=c1c2c(n(Cc3ccc(Cl)c(Cl)c3)c3c1CCC3)CCCC2 | 31.1 µM
16 | O=C(Nc1ccc(-c2nc3ccccc3[nH]2)cc1)c1ccco1 | 94 µM
17 | Cc1cc(C)c(NC(=O)C[N+](C)(C)CC(O)COc2cccc3ccccc23)c(C)c1 (centres undefined) | 63.8 µM
18 | CN(C)CC/C=C1\c2ccccc2Sc2cc(F)c(Cl)cc21 | 34.8 µM
19 | CN(C)CCCOC(=O)c1sc2ccccc2c1Cl | 68.6 µM
20 | CCCNC1=C(C)C(=O)C2=C(C1=O)C(COC(N)=O)[C@]1(OC)C3NC3CN21 (some centres undefined) | 21.3 µM
21 | CN1CC=C(/C=C/c2ccc(-c3ccccc3)cc2)CC1 | 23.7 µM
22 | Cc1ccc2c(c1)C1CN(C)CCC1N2Sc1ccccc1[N+](=O)[O-] (centres undefined) | 37.9 µM
23 | O=C(CSC1=NC(=O)C(c2ccccc2)C(=O)N1)Nc1cccc(Cl)c1 (centres undefined) | 80.2 µM
24 | Cc1ccccc1C(=O)NNC(=S)NC(=O)COc1ccccc1 | 126 µM
25 | CCCCOc1ccc(C(=O)OC2CC(C)N(C)CC2C)cc1 (centres undefined) | 26.7 µM
26 | O=C(/C=C/c1ccccc1Cl)c1ccccc(=O)c1O | 28 µM
27 | C=CCNc1ncnc2c1[nH]c1ccc(C)cc12 | 111 µM

Row | SMILES | IC50
28 | COc1cc(/C=C/[N+](=O)[O-])ccc1O | 45 µM
29 | Cc1ccc(NC(=O)CN(C)C2CCCCC2)cc1Br | 41.6 µM
30 | CCCCOc1ccc(NC2=NC3(CCCC3)N=C(N)N2)cc1 | 94.8 µM
31 | CCc1ccc(-c2nn(-c3ccccc3)cc2CSC(=N)N)cc1 | 19.3 µM
32 | CCc1ccc(NC(=O)C[n+]2cc(-c3ccc(C)cc3)n3c2CCC3)cc1 | 37.2 µM
33 | Oc1ccc(/C=N/Nc2nccnc2Cl)c(O)c1 | 30.5 µM
34 | CCCCC(=O)NC(=S)NNC(=O)CC | 62.2 µM
35 | Oc1ccc(CN2CCCc3ccccc32)c2cccnc12 | 57.2 µM
36 | Cc1nonc1C(=O)N/N=C/c1ccc([N+](=O)[O-])o1 | 51.9 µM
37 | Oc1c(C(Nc2ccccn2)c2cccnc2)cc(Cl)c2cccnc12 (centres undefined) | 25.5 µM
38 | O=C(Nc1c2ccccc2nc2ccccc12)C(Cl)(Cl)Cl | 79.8 µM
39 | CO[C@@]1(NC(=O)C2SC(=C(C(N)=O)C(=O)O)S2)C(=O)N2C(C(=O)O)=C(CSc3nnnn3C)CS[C@@H]21 (some centres undefined) | 10.3 µM
40 | C(=N\Nc1ccccn1)/c1cccnc1 | 30.1 µM
41 | CC(C)(C)c1ccc(OCCCNC2CCCC2)cc1 | 77.7 µM
42 | CCCCCc1ccc(OCCCC[n+]2ccccc2)c(CCCCC)c1 | 36.3 µM
43 | OC1CCCN(Cc2ccc3ccc4cccc5ccc2c3c45)C1 (centres undefined) | 59.9 µM
44 | CCCCn1c(NS(=O)(=O)c2ccccc2)c(S(=O)(=O)c2ccc(C)cc2)c2nc3ccccc3nc21 | 9.39 µM
45 | COc1ccc(/C=C/c2cc[n+](C(=O)Cc3ccccc3)cc2)cc1 | 65.3 µM
46 | NC1=NC[C@H](Cc2ccc(O)cc2)N1CCc1cccc2ccccc12 | 36.5 µM
47 | O=C(Cc1ccc([N+](=O)[O-])cc1)N/N=C/c1ccc([N+](=O)[O-])o1 | 20.9 µM
48 | COc1ccc(CNCC(O)COc2ccc(C(C)(C)c3ccccc3)cc2)cc1 (centres undefined) | 20.4 µM
49 | O=C(Nc1nnc(C2COc3ccccc3O2)o1)c1ccc(F)cc1 (centres undefined) | 37.8 µM
50 | COc1ccc(C(=O)NC(=S)NNC(=O)CCc2ccccc2)cc1 | 138 µM
51 | CCCCCCCCC[n+]1cccc2c3ccccc3ccc21 | 15.1 µM
52 | Cc1cc(OCCCCCN2CCCC2)ccc1Cl | 51 µM
53 | C[n+]1c2n(c3ccccc31)N=C(c1ccc(-c3ccccc3)cc1)CS2 | 26.4 µM
54 | CC(NCC(O)COCCC12CC3CC(CC(C3)C1)C2)c1ccccc1 (centres undefined) | 23.1 µM
